Results on 28 molecules are retold here after US12202826B2, “N-pyridinyl acetamide derivatives as inhibitors of the Wnt signaling pathway” (Redx Pharma PLC, priority 2014, dated 2025).

Experiment [1] can be described thus: Dual-Cell β-Catenin Reporter Assay. The experiment is classed as cell-based, Mouse. As to conditions: Mus musculus, luciferase signal reduced to 50% of DMSO control. How it is done: (§1) Dual-Cell β-Catenin Reporter Assay
(§2) Mouse L cells transfected to constitutively produce biologically active murine Wnt-3a, referred to as L-Wnt cells, were purchased from the American Type Culture Collection, ATCC, Manassas, VA (ATCC). These cells were cultured in DMEM supplemented with 10% FCS (Gibco/Invitrogen, Carlsbad, CA), 1% geneticin and 1% sodium pyruvate (Sigma) at 37° C. with 5% CO2. The cells were seeded into 96 well plates and treated with serial dilutions of compound diluted to 0.1% DMSO concentration. After 24 hours, cell supernatants were transferred to a 96 well plate previously seeded with Leading Light® Wnt Reporter Cells, stably transfected with a luciferase gene under control of Wnt pathway response elements. After a further 24 hours, cells are treated with One-glo luciferase assay system (Promega, Madison, WI) and the luminescent signal read by envision. The IC50 of the compound is determined as the concentration that reduces the induced luciferase signal to 50% of the DMSO control.
(§3) The category “+” refers to compounds with an IC50 of >100 μM. The category “++” refers to compounds with an IC50 of 5 to 100 μM. The category “+++” refers to compounds with an IC50<5 μM.
(In general: In a reporter assay the amount or activity of a reporter protein is the signal.)

In experiment [2] the test system is L-Wnt cells (murine Wnt-3a) / Leading Light Wnt Reporter Cells (luciferase under control of Wnt pathway response elements). Kind of experiment: Dual-Cell β-Catenin Reporter Assay. The experiment is classed as cell-based, Mouse. The conditions noted are these: category of IC50; luciferase signal reduced to 50% of DMSO control. How it is done:
as §1, §2, §3

Broadly, the IC50 is the concentration that gives 50% inhibition. Higher therefore signals weaker potency in that assay. As for `Cc1cc(-c2cnn(CC(=O)Nc3ccc(-c4cnccn4)cn3)c2)ccn1` [compound 3], the IC50 in experiment [1] (category of IC50) was 5 to 100 nM; in experiment [1], 12.2 nM.

As for `CC(C)(C)OC(=O)N1CCN(c2ccc(NC(=O)Cn3cnc(-c4ccnc(C(F)(F)F)c4)c3)nc2)CC1` [compound 6], the IC50 in experiment [1] (category of IC50) is below 5 nM; in experiment [1] it was 0.91 nM.

For `Cc1nn(CC(=O)Nc2ccc(-c3ccc(C#N)cc3)cn2)c(C)c1-c1ccnc(C(F)(F)F)c1` [compound 54], the IC50 in experiment [1] (category of IC50) is below 5 nM; in experiment [1], 0.14 nM. For `Cc1c(-c2ccnc(C(F)(F)F)c2)ncn1CC(=O)Nc1ccc(-c2cnccn2)cn1` [compound 74], the concentration for half-maximal inhibition (IC50) was below 5 nM in experiment [1] (category of IC50) and 0.05 nM in experiment [1]. Turning to `Cc1cc(-c2nn(CC(=O)Nc3ccc(-c4cnccn4)cn3)cc2C)ccn1` [compound 75], the IC50 in experiment [1] (category of IC50) was below 5 nM; in experiment [1], 0.61 nM. In the case of `Cc1cc(-c2ncn(CC(=O)Nc3ccc(-c4cnccn4)cn3)c2C)ccn1` [compound 87], in experiment [2], the IC50 was below 5 nM.

As for `O=C(Cn1cc(C2=CCOCC2)c(C(F)(F)F)n1)Nc1ccc(-c2cnccn2)cn1` [compound 88], the IC50 in experiment [2] is below 5 nM.

On to `Cc1nn(CC(=O)Nc2ccc(-c3cnccn3)cn2)cc1C1=CCOCC1` [compound 89], for which the IC50 in experiment [2] fell in the range of 5 to 100 nM. In turn, `Cc1cc(-c2cn(CC(=O)Nc3ccc(-c4cnccn4)cn3)nc2C)ccn1` [compound 90] yielded an IC50 in experiment [2] below 5 nM.

Molecule `Cc1cc(-c2cn(CC(=O)Nc3ccc(-c4cncnc4)cn3)nc2C)ccn1` [compound 91] showed an IC50 in experiment [2] below 5 nM. On the same count and under the same terms, next, `Cc1nn(CC(=O)Nc2ccc(-c3cnccn3)cn2)c(C)c1C1CC(C)OC(C)C1` (stereo not shown) [compound 92]: 5 to 100 nM; `Cc1nn(CC(=O)Nc2ccc(-c3ccnc(N(C)C)c3)cn2)cc1-c1ccnc(C(F)(F)F)c1` [compound 94]: 5 to 100 nM; `O=C(Cn1cc(-c2ccnc(C(F)(F)F)c2)c(C(F)(F)F)n1)Nc1ccc(-c2cnccn2)cn1` [compound 95]: below 5 nM.

Take `Cc1nn(CC(=O)Nc2ccc(-c3cncnc3)cn2)c(C)c1C1CC(C)OC(C)C1` (stereo not shown) [compound 96]: in experiment [2], the 50% inhibitory concentration (IC50) fell in the range of 5 to 100 nM. In experiment [2], `Cc1nn(CC(=O)Nc2ccc(-c3ncccn3)cn2)c(C)c1C1CC(C)OC(C)C1` (stereo not shown) [compound 97] came in with an IC50 of 5 to 100 nM. In experiment [2], `COc1ccc(-c2ccc(NC(=O)Cn3cc(-c4ccnc(C(F)(F)F)c4)c(C)n3)nc2)cn1` [compound 98] displayed an IC50 of 5 to 100 nM.

With `Cc1nn(CC(=O)Nc2ccc(-c3ccc(N(C)C)nc3)cn2)cc1-c1ccnc(C(F)(F)F)c1` [compound 99], in experiment [2], the IC50 is below 5 nM.

In turn, `Cc1nn(CC(=O)Nc2ccc(-c3cnccn3)cn2)c(C)c1-c1ccnc(N(C)C)c1` [compound 100] yielded an IC50 in experiment [2] of 5 to 100 nM. Same read-out and setting: the value for `Cc1nn(CC(=O)Nc2ccc(-c3cnccn3)cn2)c(C)c1-c1ccc(N(C)C)nc1` [compound 101] was 5 to 100 nM; that for `Cc1nn(CC(=O)Nc2ccc(-c3cncnc3)cn2)c(C)c1-c1ccc(N(C)C)nc1` [compound 102] was 5 to 100 nM. On the same count and under the same terms, the value for `CC(=O)Nc1ccc(-c2ccc(NC(=O)Cn3cc(-c4ccnc(C(F)(F)F)c4)c(C)n3)nc2)cn1` [compound 103] was below 5 nM; that for `Cc1c(-c2ccnc(C(F)(F)F)c2)ncn1CC(=O)Nc1ccc(-c2cncnc2)cn1` [compound 104] was below 5 nM.

`Cc1c(-c2ccnc(C(F)(F)F)c2)ncn1CC(=O)Nc1ccc(-c2ncccn2)cn1` [compound 105] came in with an IC50 in experiment [2] below 5 nM.

As to `Cc1c(-c2ccnc(C(F)(F)F)c2)ncn1CC(=O)Nc1ccc(-c2ccc(C#N)cc2)cn1` [compound 107], the IC50 in experiment [1] (category of IC50) is below 5 nM; in experiment [1] it was 0.05 nM. For `Cc1c(-c2ccnc(C(F)(F)F)c2)ncn1CC(=O)Nc1ccc(-c2cccnc2)cn1` [compound 108], the IC50 in experiment [2] was below 5 nM. Same read-out and setting: next, `Cc1c(-c2ccnc(C(F)(F)F)c2)ncn1CC(=O)Nc1ccc(-c2ccnc(C#N)c2)cn1` [compound 109]: 5 to 100 nM; `Cc1c(-c2ccnc(F)c2)ncn1CC(=O)Nc1ccc(-c2cnccn2)cn1` [compound 110]: below 5 nM; “tert-butyl 4-[1-[2-oxo-2-[(5-pyrazin-2-yl-2-pyridyl)amino]ethyl]pyrazol-4-yl]-3,6-dihydro-2H-pyridine-1-carboxylate [Example 16]”: 5 to 100 nM.
